Results published in patent US20250017940A1, “SELECTIVE PEPTIDOMIMETIC MODULATORS OF CAV2.2 (N-TYPE) VOLTAGE-GATED CALCIUM CHANNELS AND USES THEREOF” (New York University, priority 2023, published 2025).

How the values were obtained:
total Ca2+ currents = assay: Whole-cell patch-clamp, total Ca2+ currents in small-to-medium DRG neurons; type: cell-based, rat; settings: 20 μM overnight; normalized to 0.1% DMSO control (1.00±0.06)
Description: Recordings were obtained from acutely dissociated DRG neurons as described earlier (Bellampalli et al., 2019). Patch-clamp recordings were performed at room temperature (22-24° C.). Currents were recorded using an EPC 10 Amplifier-HEKA (HEKA Elektronik, Ludwigshafen, Germany) linked to a computer with Patchmaster software. DRG neurons were incubated overnight (˜16-24 hours) with 20 μM of CBD3063.
For total calcium current (ICa^2+) recordings, the external solution consisted of the following (in mM): 110 N-methyl-D-glucamine, 10 BaCl2, 30 TEA-Cl, 10 HEPES, 10 glucose, and 0.001 TTX (pH 7.29 adjusted with TEA-OH, and mOsm/L=310). Patch pipettes were filled with an internal solution containing (in mM): 150 CsCl2, 10 HEPES, 5 Mg-ATP, and 5 BAPTA, (pH 7.2 adjusted with CsOH, and mOsm/L-305). Peak Ca^2+ current was acquired by applying 200-millisecond voltage steps from −70 to +60 mV in 10-mV increments from a holding potential of −90 mV to obtain the current-voltage (I-V) relation. To measure the different subtypes of Ca^2+ channels, DRGs were treated with a Cav inhibitor cocktail omitting the inhibitor specific to the subtype being tested (e.g., to measure Cav2.2 currents, ω-conotoxin GVIA is omitted): Nifedipine (10 μM, L-type), ω-Conotoxin-GVIA (500 nM, […]) (Feng, et al., 2001), SNX482 (200 nM, R-type) (Newcomb et al., 1998), ω-agatoxin (200 nM, P/Q-type) (Mintz et al., 1992), TTA-P2 (1 μM, T-type) (Choe et al., 2011).
Normalization of currents to each cell's capacitance (pF) was performed to allow for collection of current density data. For I-V curves, functions were fitted to data using a non-linear least squares analysis. I-V curves were fitted using double Boltzmann functions:
where x is the pre-pulse potential, V1/2 is the mid-point potential, and k is the corresponding slope factor for single Boltzmann functions. Double Boltzmann fits were used to describe the shape of the curve, not to imply the existence of separate channel populations. Numbers 1 and 2 simply indicate first and second mid-points; a along with g are fitting parameters.
Activation curves were obtained from the I-V curves by dividing the peak current at each depolarizing step by the driving force according to the equation: G=I/(Vmem-Erev), where I is the peak current, Vmem is the membrane potential and Erev is the reversal potential. The conductance (G) was normalized against the maximum conductance (Gmax). For total and the different subtypes of Ca^2+ currents, steady-state inactivation (SSI) curves were obtained by applying an H-infinity protocol that consisted of 1.5-seconds conditioning pre-pulses from −100 to +30 mV in 10-mV increments followed by a 20-millisecond test pulse to +10 mV. For Na^+ currents, SSI curves were obtained by applying an H-infinity protocol that consisted of 1-second conditioning pre-pulses from −120 to +10 mV in 10-mV increments followed by a 200-millisecond test pulse to +10 mV. Inactivation curves were obtained by dividing the peak current recorded at the test pulse by the maximum current (Imax). Activation and SSI curves were fitted with the Boltzmann equation.

[1] = Preliminary tests of analgesic properties

SMILES | normalized peak total ICa2+ density (total Ca2+ currents) | analgesic properties [1]
N=C(NCCCN1CCc2ccccc2C1)NCc1ccccc1 [CBD3065, N′-benzyl-N-[3-(3,4-dihydro-1H-isoquinolin-2-yl)propyl]guanidine] | 0.52±0.07 ratio to DMSO control | did not exhibit analgesic properties
COc1ccccc1CNC(=N)NCCCN1Cc2ccccc2C1 [CBD3074, N-[3-(1,3-dihydroisoindol-2-yl)propyl]-N′-[(2-methoxyphenyl)methyl]guanidine] | 0.58±0.06 ratio to DMSO control | –
